Measurements as given in patent US8981100B2, “Use of novel coumarins as glutathione and thiol labels” (Life Technologies Corporation, priority 2007, dated 2015).
“And” between values parts separate entries of the source, which are not always exact repeats. Identical values can stand only once. Counter-ions that a name gives are not always drawn. Values belong to the compound of their own block, whether it stands above or below them.

Key:
[1] = tested on: U-2 OS cells; assay: effect of BSO treatment on Example 2 staining in U-2 OS cells; assay type: cell-based, human; details: BSO 4 mM overnight, Example 2 40 uM, varied staining time, 3.7% formaldehyde fixation, nuclear region
Procedure: (§1) Cells are plated into 96-well microplates and allowed to recover for several hours or overnight. For testing effects of drugs on intracellular thiol/glutathione content, normal growth medium is removed and replaced with normal growth medium containing the test drug. The solution is incubated for several minutes to days. Growth medium is then removed and mixture is rinsed twice with DPBS with glucose/calcium/magnesium (Invitrogen #14287). The compound of Examples 1, 2 or 4 is added in DPBS (Invitrogen #14287), with a concentration up to 100 uM (typically 20 uM). The solution is incubated in a 37 degree C. incubator for 5-30 minutes (typically 30 minutes). Cells can be imaged after dye labeling.
(§2) Aldehyde fixation: The dye solution is removed and formaldehyde 3.7% (Sigma F1635, or higher quality) in DPBS (Invitrogen #14190) is added and incubated at room temperature in a fume hood for 30 minutes. The formaldehyde fixative is then removed and cells are rinsed with DPBS (Invitrogen #14190) twice. Cells are kept in PBS.
(§3) To quantitate the images of cells stained with the Example compounds, one of the image analysis “BioApplcations” of Arrayscan VTI is used. […] Pixel intensity of the dye in cells are measured in regions (Nucleus, and/or “CytoRing”) defined by the cell identification method based on the nuclear counter stain. […]

[2] = tested on: U-2 OS cells; assay: effect of quinone toxicants on Example 2 staining in U-2 OS cells; assay type: cell-based, human; details: toxicant 2 hours, high concentration 33.3 uM in steps of 1/3, Example 2 30 min, formaldehyde fixation, nuclear region
Procedure: as §1, §2
To quantitate the images of cells stained with the Example compounds, one of the image analysis “BioApplcations” of Arrayscan VTI is used. The basic principle of the software is described as follows: Individual cells in an image are identified using the intensity profile of nuclear stain (e.g. TO-PRO-3). The regions derived from the identified nuclear region in individual cells is obtained (“CytoRing”). Pixel intensity of the dye in cells are measured in regions (Nucleus, and/or “CytoRing”) defined by the cell identification method based on the nuclear counter stain. Cell-level data (intensity and other attributes of each cell in all acquired images) are then reported by the computer for further processing and analysis.

[3] = tested on: Clone 9 cells (Rat liver cells); assay: effect of DEM treatment on Clone 9 cells, Example 2 multiplexed with YOYO-1; assay type: cell-based; details: DEM 2 hours, at higher concentration of DEM
Procedure: Cells are plated into 96-well microplates and allowed to recover for several hours or overnight. For testing effects of drugs on intracellular thiol/glutathione content, normal growth medium is removed and replaced with normal growth medium containing the test drug. The solution is incubated for several minutes to days. Growth medium is then removed and mixture is rinsed twice with DPBS with glucose/calcium/magnesium (Invitrogen #14287). The compound of Examples 1, 2 or 4 is added in DPBS (Invitrogen #14287), with a concentration up to 100 uM (typically 20 uM). The solution is incubated in a 37 degree C. incubator for 5-30 minutes (typically 30 minutes). Cells can be imaged after dye labeling. Aldehyde fixation: The dye solution is removed and formaldehyde 3.7% (Sigma F1635, or higher quality) in DPBS (Invitrogen #14190) is added and incubated at room temperature in a fume hood for 30 minutes. The formaldehyde fixative is then removed and cells are rinsed with DPBS (Invitrogen #14190) twice. Cells are kept in PBS. To quantitate the images of cells stained with the Example compounds, one of the image analysis “BioApplcations” of Arrayscan VTI is used. […] Pixel intensity of the dye in cells are measured in regions (Nucleus, and/or “CytoRing”) defined by the cell identification method based on the nuclear counter stain. […]

[4] = tested on: U-2 OS cells; assay: cellular staining pattern in U-2 OS cells; assay type: cell-based, human
Procedure: as §1, §2
(§4) The material is imaged with a fluorescence microscope with filter set for Hoechst 33342 (e.g. Arrayscan VTI (Thermo Fisher Scientific/Cellomics) to acquire the images automatically).

[5] = tested on: U-2 OS cells; assay: staining intensity of dyes in fixed U-2 OS cells, measured at the nuclear region; assay type: cell-based, human; details: dye concentration 40 uM, 30 min staining, 3.7% formaldehyde fixation
Procedure: as §1
Aldehyde fixation: The dye solution is removed and formaldehyde 3.7% (Sigma F1635, or higher quality) in DPBS (Invitrogen #14190) is added and incubated at room temperature in a fume hood for 30 minutes. […]
as §4, §3

[6] = absorption and emission maxima of the dyes; assay type: physicochemical
[7] = tested on: U-2 OS cells; assay: SDS-PAGE of labeled U-2 OS cells (+/- BSO) to identify the intracellular target of the dye; assay type: cell-based, human; details: (+/-) BSO 4 mM overnight, Example 2 40 uM for 60 min
Procedure: U-2 OS cells (ATCC HTB-96, human osteosarcoma cells) were plated in 10-cm dishes and incubated overnight in a 37 degree C. cell culture incubator. The cells were then treated with DL-Buthionine-(S,R)-sulfoximine (BSO, 4 mM in growth medium) for overnight (Control=no BSO treatment). The cells are rinsed cells 3 times with 10 mL of DPBS (Invitrogen #14287).
Labeling of cells: Example 2 (40 uM) in DPBS (Invitrogen #14287) was incubated at room temperature for 1 hour. The dye solution was removed and cells rinsed with DPBS (Invitrogen #14287) twice. The cells were scraped off the dish in the presence of DPBS and transferred to a 15 mL conical tube. The cells were pelleted by centrifugation—(5 min. at 5000 rpm, Centrific centrifuge, Fisher Scientific) and resuspended in DPBS, followed by pelleting cells by centrifugation for 5 min at 1000×g. The cells were resuspended in 170 μl DPBS and, to one half, 1 μl Protease Inhibitor (Sigma, P8340) was added, followed by 2 μl 1 M NEM for 30 min and 4 μl 1 M DTT for 30 min.
Processed samples were resolved with SDS-PAGE (NuPAGE 12% Bis-Tris, Invitrogen, NP0342BOX) run in MES buffer (Invitrogen, NP0002). LDS sample buffer (NP0007) and Molecular weight standard (SeeBluePlus2 Prestained Standard LC5925) were obtained from Invitrogen. […]

Structure (SMILES): CCCCS(=N)(=O)CCC(N)C(=O)O (racemic) [BSO, DL-Buthionine-(S,R)-sulfoximine]
effect on Example 2 staining intensity [1]: reduction of Example 2 staining

Structure (SMILES): O=C1C=CC(=O)C=C1 [BQ, 1,4-benzoquione]
effect on Example 2 staining intensity [2]: decrease of staining at high toxicant concentrations

Structure (SMILES): COC(=O)/C=C\C(=O)OC [DEM, Dimethyl maleate]
effect on Example 2 intensity ([3]; Example 2 40 uM 30 min): decrease of Example 2 signal (left shift)
effect on YOYO-1 intensity ([3]; YOYO-1 1 uM 30 min): increase of YOYO-1 signal (up shift)

absorption maximum ([6]; in methanol): 405 nm
emission maximum ([6]; in methanol): 493 nm
Structure (SMILES): O=c1cc(CCl)c2cc3c4c(c2o1)CCCN4CCC3 [Example 1, 2,3,6,7-tetrahydro-9-chloromethyl-1H,5H-quinolizino(9,1-gh)coumarin]
cellular staining pattern [4]: prominent in nuclear area and diffuse stain in the cytoplasm, with low staining in the cell periphery
staining intensity (brightness) relative to comparator dyes [5]: brighter than CMAC and mBCl

absorption maximum ([6]; in methanol): 408 nm and 413 nm
emission maximum ([6]; in methanol): 497 nm and 515 nm
Structure (SMILES): O=c1cc(CBr)c2cc3c4c(c2o1)CCCN4CCC3 [Example 2, 2,3,6,7-tetrahydro-9-bromomethyl-1H,5H-quinolizino(9,1-gh)coumarin]
cellular staining pattern [4]: prominent in nuclear area and diffuse stain in the cytoplasm, with low staining in the cell periphery
major intracellular target [7]: Glutathione (GSH)
staining intensity (brightness) relative to comparator dyes [5]: brighter than Example 1

absorption maximum ([6]; in water): 408 nm
emission maximum ([6]; in water): 512 nm
Structure (SMILES): N[C@H](CCC(=O)N[C@H](CSCc1cc(=O)oc2c3c4c(cc12)CCCN4CCC3)C(=O)NCC(=O)O)C(=O)O [Example 3, glutathione adduct of 2,3,6,7-tetrahydro-9-bromomethyl-1H,5H-quinolizino(9,1-gh)coumarin]

Structure (SMILES): CC1=CC(=O)c2ccccc2C1=O [MNQ, 2-methyl-1,4-naphthoquinone]
effect on Example 2 staining intensity [2]: decrease of staining at high toxicant concentrations

Structure (SMILES): O=C1C=CC(=O)c2ccccc21 [NQ, 1,4-naphthoquinone]
effect on Example 2 staining intensity [2]: decrease of staining at high toxicant concentrations
